Experimental data: patent publication US20100087623A1, “Method of extracting proteins and peptides from nano pearl powder” (priority 2008, published 2010)
Several values for one entry are separate records, joined by “and”; a condition that tells them apart may be missing. Equal values may be shown once.

Tested on: tyrosinase (tyramine acid enzyme)
Test: Inhibition of tyrosinase (tyramine acid enzyme) activity, dopachrome growth
Format: biochemical
Conditions: 2 mg/mL or 1 mg/mL, 37° C., pH 6.8
Protocol: Pearl powder solution is subjected to filter by employing a device called Centriprep YM3. […] In this experiment, effects of tyrosinase activation (i.e., dopachrome growth) caused by each of soluble organic compound extract of nono pearl powder and soluble organic compound extract of micro pearl powder are evaluated. Also, for pearl powder of the same effects of tyrosinase activation caused by organic compounds having a molecular weight more than 5 kDa and by organic compounds having a molecular weight less than 5 kDa are evaluated.
Referring to FIG. 11 and Table 7 again, experiment conditions are concentration of 1 mg/mL, temperature of 37° C., and pH value of 6.8.

Inhibition (%) of tyramine acid enzyme (dopachrome growth) (0 minute): 0 ± 0% | Inhibition (%) of tyramine acid enzyme (dopachrome growth) (5 minute): 36.5 ± 1.9% | Inhibition (%) of tyramine acid enzyme (dopachrome growth) (10 minute): 48.6 ± 0.7% | Inhibition (%) of tyramine acid enzyme (dopachrome growth) (15 minute): 54.3 ± 1.0% | Inhibition (%) of tyramine acid enzyme (dopachrome growth) (30 minute): 53% and 54.7 ± 0.9% | Inhibition (%) of tyramine acid enzyme (dopachrome growth) (45 minute): 37.1 ± 1.3% | Inhibition (%) of tyramine acid enzyme (dopachrome growth) (60 minute): 21% and 21.6 ± 1.9%
SMILES: OC[C@H]1O[C@@H](Oc2ccc(O)cc2)[C@H](O)[C@@H](O)[C@@H]1O [arbutin]
